Results reported in patent US12344610B2, “APOL1 inhibitors and methods of use” (Maze Therapeutics, Inc., priority 2022, dated 2025).
pEC50: −log10 of the molar value.

What was measured:
[1] = tested on: HEK293 clonal cell line overexpressing APOL1 G1; assay: APOL1 G1 HEK293 cell rescue assay (Example B3); type: cell-based; conditions: Homo sapiens, HEK293, HEK293 clonal line overexpressing APOL1 G1; geometric mean of at least 2 runs; † = single run; ¥ = concentration at 50% rescue estimated (no sigmoidal curve)
In short: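 HEK293 clonal line overexpressing APOL1 G1; EC50 is half-maximal reversal of APOL1-induced cell death. Values are the geometric mean of ≥2 runs on separate days, each run the average of duplicate wells. Where no sigmoidal curve could be fitted, the concentration giving 50% rescue was estimated.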

[2] = tested on: Trypanosoma brucei Lister 427 VSG221 with APOL1 G2 recombinant protein; assay: APOL1 G2 trypanosome cell rescue assay (Example B5); type: cell-based; conditions: Trypanosoma brucei, 20 h, read-out: APOL1 G2 Trypanosome Rescue EC50, Trypanosoma brucei Lister 427 VSG221 with APOL1 G2 recombinant protein, 20 hours, CellTiter-Glo; geometric mean of at least 2 assay runs; † = single assay run
In short: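 Mature APOL1 (residues 28-398, E. coli-expressed, His-tag removed by TEV) was added as a 2 μg/mL solution to T. brucei Lister 427 VSG221 in modified HMI-9 medium at 250 cells/well, with duplicate 11-point 2-fold compound dilutions (0.4% DMSO). After 20 h at 37° C, 5% CO2, viability was read by CellTiter-Glo luminescence.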

Structure (SMILES) | pEC50 [1] | pEC50 [2]
COCCN1C(=O)C2(CCN(CCOc3ccc(S(C)(=O)=O)cc3)CC2)c2cc(C#N)ccc21 [Compound 25, 1′-[2-(4-methanesulfonylphenoxy)ethyl]-1-(2-methoxyethyl)-2-oxo-1,2-dihydrospiro[indole-3,4′-piperidine]-5-carbonitrile] | ~5.08 | 5.91
CS(=O)(=O)c1ccc(OCCN2CCCC3(CC2)C(=O)Nc2ccccc23)cc1 (stereo not drawn) [Compound 26, 1-(2-(4-(methylsulfonyl)phenoxy)ethyl)spiro[azepane-4,3′-indolin]-2′-one] | ~4.96 | < 5.40
CN1C(=O)CCc2cc(OCCN3CCC4(CC3)C(=O)Nc3ccc(Cl)cc34)ccc21 [Compound 27, 5-chloro-1′-[2-[(1-methyl-2-oxo-3,4-dihydroquinolin-6-yl)oxy]ethyl]spiro[indoline-3,4′-piperidine]-2-one] | 6.73 | 7.18
O=C1CCc2cc(OCCN3CCC4(CC3)C(=O)Nc3ccc(Cl)cc34)cnc2N1CCO [Compound 192, 5-chloro-1′-(2-{[8-(2-hydroxyethyl)-7-oxo-5,6,7,8-tetrahydro-1,8-naphthyridin-3-yl]oxy}ethyl)-1,2-dihydrospiro[indole-3,4′-piperidin]-2-one] | 6.90 | 7.31
CC(=O)N(C)CCS(=O)(=O)c1ccc(OCCN2CCC3(CC2)C(=O)Nc2ccc(Cl)cc23)cc1 [Compound 193, N-{2-[4-(2-{5-chloro-2-oxo-1,2-dihydrosiro[indole-3,4′-piperidin]-1′-yl}ethoxy)benzenesulfonyl]ethyl}-N-methylacetamide] | 6.42 | 7.15
CS(=O)(=O)C1(c2ccc(OCCN3CCC4(CC3)C(=O)Nc3ccc(Cl)cc34)cc2)COC1 [Compound 195, 5-chloro-1′-{2-[4-(3-methanesulfonyloxetan-3-yl)phenoxy]ethyl}-1,2-dihydrospiro[indole-3,4′-piperidin]-2-one] | 7.14 | 7.70
O=C1Nc2ccc(Cl)cc2C12CCN(CCOc1ccc3c(c1)CCS3(=O)=O)CC2 [Compound 196, 5-(2-{5-chloro-2-oxo-1,2-dihydrospiro[indole-3,4′-piperidin]-1′-yl}ethoxy)-2,3-dihydro-1λ^6-benzothiophene-1,1-dione] | 6.68 | 7.22
CS(=O)(=O)c1ccc(OCCN2CCC3(CC2)C(=O)Nc2ccc(Cl)cc23)cc1C(F)F [Compound 197, 5-chloro-1′-{2-[3-(difluoromethyl)-4-methanesulfonylphenoxy]ethyl}-1,2-dihydrospiro[indole-3,4′-piperidin]-2-one] | 7.16 | 7.97
O=C1Nc2ccc(Cl)cc2C12CCN(CCOc1ccc(S(=O)(=O)CCO)cc1)CC2 [Compound 198, 5-chloro-1′-{2-[4-(2-hydroxyethanesulfonyl)phenoxy)ethyl}-1,2-dihydrospiro[indole-3,4′-piperidin]-2-one] | 6.69 | 7.38
CS(=O)(=O)Nc1ccc(OCCN2CCC3(CC2)C(=O)Nc2ccc(Cl)cc23)cc1 [Compound 214, N-[4-(2-{5-chloro-2-oxo-1,2-dihydrospiro[indole-3,4′-piperidin]-1′-yl}ethoxy)phenyl]methanesulfonamide] | 6.77 | 7.05
O=C1Nc2ccc(Cl)cc2C12CCN(CCOc1ccc(S(=O)(=O)[C@H]3C[C@H](O)C3)cc1)CC2 [Compound 215, 5-chloro-1′-[2-(4-{[(trans)-3-hydroxycyclobutyl]sulfonyl}phenoxy)ethyl]-1,2-dihydrospiro[indole-3,4′-piperidin]-2-one] | 6.91 | 7.65
CS(=O)(=O)c1ccc(OCCN2CCC3(CC2)C(=O)Nc2ccc(Cl)cc23)cc1C(O)CO (stereo not drawn) [Compound 216, 5-chloro-1′-{2-[3-(1,2-dihydroxyethyl)-4-methanesulfonylphenoxy]ethyl}-1,2-dihydrospiro[indole-3,4′-piperidin]-2-one] | ~6.00 | 6.64
O=C1CCc2cc(OCCN3CCC4(CC3)C(=O)Nc3ccc(Cl)cc34)ccc2N1[C@H]1C[C@H](O)C1 [Compound 224, 5-chloro-1′-[2-({2-oxo-1-[(trans)-3-hydroxycyclobutyl]-1,2,3,4-tetrahydroquinolin-6-yl}oxy)ethyl]-1,2-dihydrospiro[indole-3,4′-piperidin]-2-one] | 6.81 | 7.49
O=C1Nc2ccc(Cl)cc2C12CCN(CCOc1ccc(S(=O)(=O)C3(CO)CC3)cc1)CC2 [Compound 225, 5-chloro-1′-[2-(4-{[1-(hydroxymethyl)cyclopropyl]sulfonyl}phenoxy)ethyl]-1,2-dihydrospiro[indole-3,4′-piperidin]-2-one] | 7.29 | 7.89
CNC(=O)C1(S(=O)(=O)c2ccc(OCCN3CCC4(CC3)C(=O)Nc3ccc(Cl)cc34)cc2)CC1 [Compound 226, 1-[4-(2-{5-chloro-2-oxo-1,2-dihydrospiro[indole-3,4′-piperidin]-1′-yl}ethoxy)benzenesulfonyl]-N-methylcyclopropane-1-carboxamide] | 6.86 | 7.44
CN(C)C(=O)C1(S(=O)(=O)c2ccc(OCCN3CCC4(CC3)C(=O)Nc3ccc(Cl)cc34)cc2)CC1 [Compound 227, 1-[4-(2-{5-chloro-2-oxo-1,2-dihydrospiro[indole-3,4′-piperidin]-1′-yl}ethoxy)benzenesulfonyl]-N,N-dimethylcyclopropane-1-carboxamide] | 6.68 | 7.21
O=C1Nc2ccc(Cl)cc2C12CCN(CCOc1ccc(S(=O)(=O)C3(C(=O)N4CCC4)CC3)cc1)CC2 [Compound 228, 1′-[2-(4-{[1-(azetidine-1-carbonyl)cyclopropyl]sulfonyl}phenoxy)ethyl]-5-chloro-1,2-dihydrospiro[indole-3,4′-piperidin]-2-one] | 6.37 | 7.06
CNC(=O)c1ccc(OCCN2CCC3(CC2)C(=O)Nc2ccc(Cl)cc23)cc1F [Compound 229, 4-(2-{5-chloro-2-oxo-1,2-dihydrospiro[indole-3,4′-piperidin]-1′-yl}ethoxy)-2-fluoro-N-methylbenzamide] | 6.40 | 6.73
CN(C)C(=O)c1ccc(OCCN2CCC3(CC2)C(=O)Nc2ccc(Cl)cc23)cc1F [Compound 230, 4-(2-{5-chloro-2-oxo-1,2-dihydrospiro[indole-3,4′-piperidin]-1′-yl}ethoxy)-2-fluoro-N,N-dimethylbenzamide] | 6.49 | 6.68
O=C(c1ccc(OCCN2CCC3(CC2)C(=O)Nc2ccc(Cl)cc23)cc1F)N1CCOCC1 [Compound 231, 5-chloro-1′-{2-[3-fluoro-4-(morpholine-4-carbonyl)phenoxy]ethyl}-1,2-dihydrospiro[indole-3,4′-piperidin]-2-one] | 6.77 | 7.18
O=C(c1ccc(OCCN2CCC3(CC2)C(=O)Nc2ccc(Cl)cc23)cc1F)N1CCS(=O)(=O)CC1 [Compound 232, 4-[4-(2-{5-chloro-2-oxo-1,2-dihydrospiro[indole-3,4′-piperidin]-1′-yl}ethoxy)-2-fluorobenzoyl]-1λ^6-thiomorpholine-1,1-dione] | 6.86 | 7.38
CS(=O)(=O)C1CN(C(=O)c2ccc(OCCN3CCC4(CC3)C(=O)Nc3ccc(Cl)cc34)cc2F)C1 [Compound 233, 5-chloro-1′-{2-[3-fluoro-4-(3-methanesulfonyl-azetidine-1-carbonyl)phenoxy]ethyl}-1,2-dihydrospiro[indole-3,4′-piperidin]-2-one] | 6.61 | 7.39
O=C(c1ccc(OCCN2CCC3(CC2)C(=O)Nc2ccc(Cl)cc23)cc1F)N1CCC1 [Compound 234, 1′-{2-[4-(azetidine-1-carbonyl)-3-fluorophenoxy]ethyl}-5-chloro-1,2-dihydrospiro[indole-3,4′-piperidin]-2-one] | 6.63 | 6.84
O=C(c1ccc(OCCN2CCC3(CC2)C(=O)Nc2ccc(Cl)cc23)cc1F)N1CC(O)C1 [Compound 235, 5-chloro-1′-{2-[3-fluoro-4-(3-hydroxyazetidine-1-carbonyl)phenoxy]ethyl}-1,2-dihydrospiro[indole-3,4′-piperidin]-2-one] | 6.57 | 6.88
NC1CN(C(=O)c2ccc(OCCN3CCC4(CC3)C(=O)Nc3ccc(Cl)cc34)cc2F)C1 [Compound 236, 1′-{2-[4-(3-aminoazetidine-1-carbonyl)-3-fluorophenoxy]ethyl}-5-chloro-1,2-dihydrospiro[indole-3,4′-piperidin]-2-one] | 6.87 | 6.40
CS(=O)(=O)NC1CN(C(=O)c2ccc(OCCN3CCC4(CC3)C(=O)Nc3ccc(Cl)cc34)cc2F)C1 [Compound 237, N-{1-[4-(2-{5-chloro-2-oxo-1,2-dihydrospiro[indole-3,4′-piperidin]-1′-yl}ethoxy)-2-fluorobenzoyl]azetidin-3-yl} methanesulfonamide] | < 5.49 | 7.24
N#Cc1ccc2c(c1)C1(CCN(CCOc3ccc(C(N)=O)c(F)c3)CC1)C(=O)N2 [Compound 238, 4-(2-{5-cyano-2-oxo-1,2-dihydrospiro[indole-3,4′-piperidin]-1′-yl}ethoxy)-2-fluorobenzamide] | 6.61 | 6.12
